One may read the Vmax as the rate approached at saturating substrate. Usually IC50 stands for the point on the concentration scale where inhibition reaches its midpoint. A higher IC50 goes with lower potency.

These results are taken from ChEMBL document CHEMBL3526034 (Drug Metab Dispos, 2013).

Some results are limits rather than exact numbers.

Series [1] has as its system Liver microsome. Briefly: Drug metabolism in NADPH-fortified human liver microsomes assessed as metabolite M3 ((4R,12aS)-N-((3,5-difluorophenyl)(hydroxy)methyl)-7-hydroxy-4-methyl-6,8-dioxo-3,4,6,8,12,12a-hexahydro-2H-[1,3]oxazino[3,2-d]pyrido[1,2-a]pyrazine-9-carboxamide) formation at 5 uM after 120 mins treated 5 mins after selective CYP3A4 inhibitor azamulin addition by radio-HPLC analysis. In kind it is ADME.

The target in series [2] is T1, UDP-glucuronosyltransferase 1A1 (Homo sapiens, UniProt P22309).
T1 sequence (P22309 whole entry): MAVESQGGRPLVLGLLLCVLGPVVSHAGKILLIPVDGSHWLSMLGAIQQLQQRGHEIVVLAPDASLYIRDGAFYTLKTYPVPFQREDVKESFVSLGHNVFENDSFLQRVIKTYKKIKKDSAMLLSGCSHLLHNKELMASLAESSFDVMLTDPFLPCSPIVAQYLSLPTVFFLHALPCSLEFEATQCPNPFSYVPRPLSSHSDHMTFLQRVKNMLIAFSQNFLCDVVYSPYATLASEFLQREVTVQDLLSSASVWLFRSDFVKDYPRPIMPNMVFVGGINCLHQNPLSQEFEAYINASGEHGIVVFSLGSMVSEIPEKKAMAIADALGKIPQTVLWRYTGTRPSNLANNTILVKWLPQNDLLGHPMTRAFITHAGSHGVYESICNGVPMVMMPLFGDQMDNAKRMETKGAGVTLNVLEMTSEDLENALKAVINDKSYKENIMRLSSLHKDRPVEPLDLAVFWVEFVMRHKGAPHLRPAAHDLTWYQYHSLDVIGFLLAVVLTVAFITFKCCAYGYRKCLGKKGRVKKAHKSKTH
Briefly: Drug metabolism assessed as intrinsic clearance for human recombinant UGT1A1-mediated DTG glucuronide M2 ((2S,3S,4S,5R,6S)-6-((4R,12aS)-9-(2,4-difluorobenzylcarbamoyl)-4-methyl-6,8-dioxo-3,4,6,8,12,12a-hexahydro-2H-[1,3]oxazino[3,2-d]pyrido[1,2-a]pyrazin-7-yloxy)-3,4,5-trihydroxytetrahydro-2H-pyran-2-carboxylic acid) formation after 120 mins measured per mg of protein by radio-HPLC analysis. In kind it is ADME. To be noted: recombinant enzyme.

The target in series [3] is T1, UDP-glucuronosyltransferase 1A1. Briefly: Drug metabolism assessed as human recombinant UGT1A1-mediated DTG glucuronide M2 ((2S,3S,4S,5R,6S)-6-((4R,12aS)-9-(2,4-difluorobenzylcarbamoyl)-4-methyl-6,8-dioxo-3,4,6,8,12,12a-hexahydro-2H-[1,3]oxazino[3,2-d]pyrido[1,2-a]pyrazin-7-yloxy)-3,4,5-trihydroxytetrahydro-2H-pyran-2-carboxylic acid) formation after 120 mins measured per mg of protein by radio-HPLC analysis. Type of series: ADME. To be noted: recombinant enzyme.

Series [4] addresses T2, Cytochrome P450 2C8 (Homo sapiens, UniProt P10632).
T2 sequence (P10632 whole entry): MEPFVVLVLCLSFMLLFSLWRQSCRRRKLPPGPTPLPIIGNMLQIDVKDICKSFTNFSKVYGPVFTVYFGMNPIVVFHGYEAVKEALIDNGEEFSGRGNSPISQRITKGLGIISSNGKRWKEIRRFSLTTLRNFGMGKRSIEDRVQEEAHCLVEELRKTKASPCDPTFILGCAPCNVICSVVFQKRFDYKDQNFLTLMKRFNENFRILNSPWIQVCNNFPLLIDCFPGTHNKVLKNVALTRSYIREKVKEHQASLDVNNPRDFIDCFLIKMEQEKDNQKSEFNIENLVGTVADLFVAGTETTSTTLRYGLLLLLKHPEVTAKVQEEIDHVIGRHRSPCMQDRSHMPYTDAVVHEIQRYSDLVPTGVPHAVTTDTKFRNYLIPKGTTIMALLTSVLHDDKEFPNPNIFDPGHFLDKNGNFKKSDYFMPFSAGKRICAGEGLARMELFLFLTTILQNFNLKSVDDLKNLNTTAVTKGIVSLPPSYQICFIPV
Briefly: Metabolism-dependent inhibition of CYP2C8 in human liver microsomes using rosiglitazone as substrate preincubated for 20 mins with NADPH prior to initiation of reaction with probe substrate by HPLC analysis. In kind it is ADME.

The subject of series [5] is Hepatocyte. Nature of the series: Induction of CYP2B6 mRNA expression in human hepatocytes at 1 to 40 uM after 48 hrs by real time PCR analysis. Type of series: ADME, cell-based. A general note: In qPCR the cycle at which signal appears reflects the starting amount.
For series [6], the system named is Liver microsome. Briefly: Drug metabolism in UDPGA-fortified human liver microsomes assessed as DTG glucuronide metabolite ((2S,3S,4S,5R,6S)-6-((4R,12aS)-9-(2,4-difluorobenzylcarbamoyl)-4-methyl-6,8-dioxo-3,4,6,8,12,12a-hexahydro-2H-[1,3]oxazino[3,2-d]pyrido[1,2-a]pyrazin-7-yloxy)-3,4,5-trihydroxytetrahydro-2H-pyran-2-carboxylic acid) formation at 10 uM after 120 mins by radio-HPLC analysis in presence of UGT1A1 inhibitor atazanavir. Type of series: ADME. For orientation: Liver microsomes are a subcellular fraction often used to study metabolism.

The target of series [7] is Cytochrome P450 3A4 (Homo sapiens, UniProt P08684). Briefly: Drug metabolism in supersomes expressing human recombinant CYP3A4 assessed as intrinsic clearance for NADPH-fortified enzyme-mediated metabolite M3 ((4R,12aS)-N-((3,5-difluorophenyl)(hydroxy)methyl)-7-hydroxy-4-methyl-6,8-dioxo-3,4,6,8,12,12a-hexahydro-2H-[1,3]oxazino[3,2-d]pyrido[1,2-a]pyrazine-9-carboxamide) formation at 5 uM after 120 mins by radio-HPLC analysis. In kind it is ADME.
Cytochrome P450 3A4, sequence (P08684 whole entry): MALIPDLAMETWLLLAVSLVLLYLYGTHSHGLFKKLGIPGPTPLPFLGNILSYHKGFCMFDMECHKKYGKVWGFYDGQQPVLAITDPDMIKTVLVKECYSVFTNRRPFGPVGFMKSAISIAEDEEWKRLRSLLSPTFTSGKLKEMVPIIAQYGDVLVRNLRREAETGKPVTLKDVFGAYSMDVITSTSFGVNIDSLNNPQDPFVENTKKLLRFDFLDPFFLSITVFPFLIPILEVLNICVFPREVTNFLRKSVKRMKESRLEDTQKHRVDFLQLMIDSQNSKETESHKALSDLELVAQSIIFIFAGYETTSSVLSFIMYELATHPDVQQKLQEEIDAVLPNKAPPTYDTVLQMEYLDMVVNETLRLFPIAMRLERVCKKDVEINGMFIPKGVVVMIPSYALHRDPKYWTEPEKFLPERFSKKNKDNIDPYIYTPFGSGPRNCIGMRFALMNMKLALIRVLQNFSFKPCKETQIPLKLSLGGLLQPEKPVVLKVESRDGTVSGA

Series [8] concerns the target T3, Cytochrome P450 2B6 (Homo sapiens, UniProt P20813).
T3 sequence (P20813 whole entry): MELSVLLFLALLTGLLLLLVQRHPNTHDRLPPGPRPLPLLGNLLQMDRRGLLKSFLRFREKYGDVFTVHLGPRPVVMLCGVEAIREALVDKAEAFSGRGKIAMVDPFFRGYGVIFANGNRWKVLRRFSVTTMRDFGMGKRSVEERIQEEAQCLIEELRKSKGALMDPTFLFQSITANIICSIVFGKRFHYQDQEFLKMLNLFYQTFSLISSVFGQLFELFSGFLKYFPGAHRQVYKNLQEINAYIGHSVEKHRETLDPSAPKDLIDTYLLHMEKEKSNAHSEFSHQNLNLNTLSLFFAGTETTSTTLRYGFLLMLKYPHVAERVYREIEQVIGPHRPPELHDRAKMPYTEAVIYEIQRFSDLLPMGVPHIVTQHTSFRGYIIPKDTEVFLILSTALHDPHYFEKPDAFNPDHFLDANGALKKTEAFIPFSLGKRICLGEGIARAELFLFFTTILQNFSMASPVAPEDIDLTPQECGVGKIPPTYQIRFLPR
Nature of the series: Inhibition of CYP2B6 in human liver microsomes using bupropion as substrate preincubated for 20 mins with substrate prior to initiation of reaction with NADPH by HPLC analysis. Type of series: ADME.

The target in series [9] is MDR1 (P-gp, ABCB1) (Homo sapiens, UniProt P08183). Nature of the series: Activity at human MDR1 expressed in MDCK2 cells assessed as apical to basolateral mass balance at 3 uM by liquid scintillation counting analysis in presence of 3 uM P-gp and BCRP inhibitor GF120918. In kind it is ADME, cell-based, MDCK-II. To be noted: with GF120918 (P-gp and BCRP inhibitor), read-out: Activity.
MDR1 (P-gp, ABCB1), sequence (P08183 whole entry): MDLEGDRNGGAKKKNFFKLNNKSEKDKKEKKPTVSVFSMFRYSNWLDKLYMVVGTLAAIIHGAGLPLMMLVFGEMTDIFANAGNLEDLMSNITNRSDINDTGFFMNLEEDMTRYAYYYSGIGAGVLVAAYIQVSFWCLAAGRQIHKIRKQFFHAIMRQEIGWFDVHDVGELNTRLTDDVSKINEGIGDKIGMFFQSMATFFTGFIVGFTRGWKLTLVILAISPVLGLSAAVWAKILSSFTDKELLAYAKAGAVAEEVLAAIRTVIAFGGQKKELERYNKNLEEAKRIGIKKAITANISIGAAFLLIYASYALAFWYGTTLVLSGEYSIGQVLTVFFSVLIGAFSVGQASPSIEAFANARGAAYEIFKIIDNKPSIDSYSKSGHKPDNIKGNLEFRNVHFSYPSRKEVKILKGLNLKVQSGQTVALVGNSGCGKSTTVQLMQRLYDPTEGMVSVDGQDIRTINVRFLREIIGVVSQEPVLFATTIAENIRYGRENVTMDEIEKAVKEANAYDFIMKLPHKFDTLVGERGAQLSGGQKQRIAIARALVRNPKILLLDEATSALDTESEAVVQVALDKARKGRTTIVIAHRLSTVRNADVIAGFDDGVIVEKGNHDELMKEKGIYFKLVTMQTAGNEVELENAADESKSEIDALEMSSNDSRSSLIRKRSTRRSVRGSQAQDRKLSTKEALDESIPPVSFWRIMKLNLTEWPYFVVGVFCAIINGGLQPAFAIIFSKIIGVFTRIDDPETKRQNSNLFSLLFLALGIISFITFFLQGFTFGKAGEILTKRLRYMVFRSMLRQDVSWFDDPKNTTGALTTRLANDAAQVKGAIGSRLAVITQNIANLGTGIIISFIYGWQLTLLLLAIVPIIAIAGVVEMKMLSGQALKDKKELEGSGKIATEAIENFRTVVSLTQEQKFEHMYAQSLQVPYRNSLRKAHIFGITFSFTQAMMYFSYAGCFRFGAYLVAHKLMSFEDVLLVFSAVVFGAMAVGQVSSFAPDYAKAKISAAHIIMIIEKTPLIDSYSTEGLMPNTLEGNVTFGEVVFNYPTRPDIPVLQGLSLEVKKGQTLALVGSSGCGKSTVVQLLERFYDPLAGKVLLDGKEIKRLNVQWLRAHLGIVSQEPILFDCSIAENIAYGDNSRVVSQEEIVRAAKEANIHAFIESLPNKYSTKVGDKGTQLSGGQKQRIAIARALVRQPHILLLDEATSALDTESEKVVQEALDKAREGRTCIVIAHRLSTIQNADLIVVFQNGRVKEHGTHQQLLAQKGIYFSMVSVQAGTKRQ

The target of series [10] is ATP-dependent translocase ABCB1 (Homo sapiens, UniProt P08183). Nature of the series: Inhibition of human MDR1. In kind it is ADME.
ATP-dependent translocase ABCB1, sequence (P08183 whole entry): as above

Take `C[C@@H]1CCO[C@H]2Cn3cc(C(=O)NCc4ccc(F)cc4F)c(=O)c(O)c3C(=O)N12` [DOLUTEGRAVIR]: the Drug metabolism result in [1] and in series [6] was “metabolite_not_detected” each time. Also, the results for the CL in [2] and in series [7] were 3.2 µL/min/g and 3 µL/min/mg, respectively. Besides, the Vmax in [3] was determined as 67 pmol/min. Further, the results for the IC50 in [4], in [8] and in series [10] were above 100 µM, above 100 µM and above 90 µM, respectively. In addition, the Activity entry in [5] is on record as “Toxic”. The recovery at 3 µM in [9] was 84%.
